Results reported in paper PMC12073238, “The α-Glucosidase Inhibition Activities of Phaeochromycins D and E Isolated from Marine Streptomyces sp. FJ0218” (Molecules, 2025).
Like-named read-outs stand apart in the source and are kept apart here.

Experiments:
[1] = biological target: T1, α-glucosidase (Saccharomyces cerevisiae, UniProt P53341); conditions: cited from earlier work
[2] = biological target: T1, α-glucosidase; assay: inhibition kinetics of α-glucosidase, Lineweaver–Burk double-reciprocal plots; type: biochemical; conditions: compound 1 at 0.5 and 0.7 mM, compound 2 at 0.2 and 0.3 mM; for inhibition type: ρNPG 0.25-4.0 mM
Method: Louis, MO, USA) in the same PBS buffer. […] After being thoroughly mixed, the mixture was placed in a 37 °C constant temperature incubator for 15 min. […] Then, 80 μL of 200 mM Na2CO3 solution was added to complete the reaction. Finally, the absorbance value (OD) was measured at 405 nm using a microplate reader. The experiment used 20 μL of PBS as the background control instead of 20 μL of α-glucosidase solution. Additionally, 20 μL of PBS was used as the negative control instead of the test sample. […] Each treatment was repeated three times. The α-glucosidase inhibitory activity was calculated using the following formula: Inhibitory rate (%) = [(An - As)/An] × 100, where As represents the absorbance of the sample reaction solution, and An represents the absorbance of the negative control. The IC50 values, the inhibitor concentration in mM that inhibits 50% of the enzyme activity, were determined graphically by interpolating from the inhibitions determined with different concentrations of compounds, through statistical analysis using SPSS 18.0. […] For compound 1, concentrations of 0.5 mM and 0.7 mM were used, while for compound 2, concentrations of 0.2 mM and 0.3 mM were selected. […] The enzyme reaction was performed using the conditions described above. Inhibition types were analyzed using double-reciprocal plots generated with Origin 2021.

[3] = tested on: small intestinal α-glucosidase; design: method as in PMID 26840363; conditions: small intestinal α-glucosidase in rats; cited from earlier work
[4] = biological target: MAPKAP kinase-2; design: method as in PMID 16124774; conditions: weak inhibitors; cited from earlier work
[5] = tested on: HeLa cell line; design: method as in PMID 19190740; conditions: at a concentration of 10 μg/mL; cited from earlier work

T1 sequence (P53341 whole entry): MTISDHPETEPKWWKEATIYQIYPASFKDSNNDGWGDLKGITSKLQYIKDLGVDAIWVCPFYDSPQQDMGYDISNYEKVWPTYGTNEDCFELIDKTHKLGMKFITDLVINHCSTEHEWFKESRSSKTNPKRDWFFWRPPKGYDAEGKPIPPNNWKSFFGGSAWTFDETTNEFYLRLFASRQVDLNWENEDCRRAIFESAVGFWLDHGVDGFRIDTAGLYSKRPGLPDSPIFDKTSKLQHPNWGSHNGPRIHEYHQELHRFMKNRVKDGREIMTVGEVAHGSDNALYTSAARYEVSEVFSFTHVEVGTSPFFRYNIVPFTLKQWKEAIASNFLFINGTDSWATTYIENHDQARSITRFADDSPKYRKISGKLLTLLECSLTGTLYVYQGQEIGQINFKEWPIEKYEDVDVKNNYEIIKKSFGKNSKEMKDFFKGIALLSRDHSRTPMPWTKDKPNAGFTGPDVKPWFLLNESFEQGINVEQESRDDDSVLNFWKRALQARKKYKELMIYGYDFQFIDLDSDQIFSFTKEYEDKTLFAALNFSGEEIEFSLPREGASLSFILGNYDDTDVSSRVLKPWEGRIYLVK

Cc1nc2c(cc(O)c3c(=O)c4ccccc4oc32)o1 [5-hydroxy-2-methyl-6H-xantheno[4,3-d]oxazol-6-one]
inhibition type ([1]; kinetic analysis): competitive inhibitor

CCCc1cc(=O)c2c(CC(=O)O)cccc2o1 [Compound 1, phaeochromycin E]
effect on Km [2]: Km decreases | effect on Vmax [2]: decrease in Vmax | inhibition type [2]: uncompetitive inhibitor

CCCc1cc(=O)c2c(CC(=O)CC(C)O)cccc2o1 (stereo not shown) [Compound 2, phaeochromycin D]
effect on Km [2]: keeping the Km constant | effect on Vmax [2]: decreasing the 1/Vmax | inhibition type [2]: non-competitive inhibitor

NS(=O)(=O)c1ccc(N/N=C/c2coc3ccccc3c2=O)cc1 [Compound 4d]
inhibition type ([1]; Lineweaver–Burk plot analysis): non-competitive mode

O=C(OC[C@H]1O[C@@H](OC(=O)c2cc(O)c(O)c(OC(=O)c3cc(O)c(O)c(O)c3)c2)[C@H](OC(=O)c2cc(O)c(O)c(OC(=O)c3cc(O)c(O)c(O)c3)c2)[C@@H](OC(=O)c2cc(O)c(O)c(OC(=O)c3cc(O)c(O)c(O)c3)c2)[C@@H]1OC(=O)c1cc(O)c(O)c(OC(=O)c2cc(O)c(O)c(O)c2)c1)c1cc(O)c(O)c(OC(=O)c2cc(O)c(O)c(O)c2)c1 [Gallotannin]
inhibition type [1]: parabolic mixed-type inhibition

OC[C@@H]1[C@@H](O)[C@H](O)C[S@@+]1C[C@@H](O)[C@@H](O)[C@H](O)[C@@H](O)CO [Neoponkoranol]
inhibition type [3]: strong competitive inhibition

CCCc1cc(=O)c2c(Cc3cc(O)cc(=O)o3)cccc2o1 [Phaeochromycin C]
IC50 [4]: 130 µM

CC(=O)CCc1ccc(O)cc1 [Raspberry ketone]
inhibition type ([1]; binding reversibly and quickly): non-competitively

O=c1c(-c2ccc(O)cc2)coc2cc(O)ccc12 [daidzein]
inhibition type [1]: non-competitive action

O=c1c(-c2ccc(O)cc2)coc2cc(O)cc(O)c12 [genistein]
inhibition type [1]: non-competitive action

Phaeochromycin A
IC50 [4]: 39 µM

phaeochromycin H
inhibitory rate against the HeLa cell line [5]: 46.0%
